# According to publication PMC11649397, “The study of halogen effect on the reactivity of the serine-targeting covalent warheads” (Frontiers in Chemistry, 2024):
# “And” between values parts separate entries of the source, which are not always exact repeats. Equal values may be shown once. “Also recorded” adds a separate entry of the source. Read-outs that look alike come from different tables or passages of the source.
# Assays:
# hCES1A = molecular target: T1, hCES1A (Homo sapiens, UniProt P23141); test: Inhibition assay on hCES1A (bioluminogenic substrate NLMe); type: biochemical; settings: for selective inhibitory activity on hCES1A: 10 μM, selectivity screening; for anti-hCES1A effect in screening of the covalent fragment library: high-throughput screening, Figure 1; for IC50: mean ± SD, n = 3
# T1 sequence (P23141 18-567): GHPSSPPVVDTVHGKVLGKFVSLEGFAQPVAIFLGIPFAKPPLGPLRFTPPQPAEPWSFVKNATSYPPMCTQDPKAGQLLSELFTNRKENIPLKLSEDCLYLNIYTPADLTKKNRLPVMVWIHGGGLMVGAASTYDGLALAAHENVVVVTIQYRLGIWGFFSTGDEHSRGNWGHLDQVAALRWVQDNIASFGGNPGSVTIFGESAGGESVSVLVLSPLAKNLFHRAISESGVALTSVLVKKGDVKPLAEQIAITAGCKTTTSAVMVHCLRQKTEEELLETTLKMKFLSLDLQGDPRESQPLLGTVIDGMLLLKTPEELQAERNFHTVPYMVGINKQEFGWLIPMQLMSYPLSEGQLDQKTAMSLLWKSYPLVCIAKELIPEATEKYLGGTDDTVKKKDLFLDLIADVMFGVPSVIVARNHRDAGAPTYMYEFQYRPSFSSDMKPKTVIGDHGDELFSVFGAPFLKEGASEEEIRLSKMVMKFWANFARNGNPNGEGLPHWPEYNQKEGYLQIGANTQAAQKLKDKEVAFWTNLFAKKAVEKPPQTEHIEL
# Method: In this study, a known bioluminogenic probe substrate NLMe was used for human carboxylesterase 1 (hCES1A) inhibition assays. ([Wang et al., 2020]). In brief, the incubation mixture (0.1 mL) consisted of 0.1 M buffer PBS (PH 6.5), hCES1A (0.1 μg/mL, final concentration) and each test compound. […] After 20 min incubation, equal volume of LDR was added to stop reaction. The luminescence signals were monitored in the microplate reader (SpectraMax iD3Molecular Devices, Austria). […]
# The household library of covalent fragments including D and F was from Organic Chemistry […]
# Fig. S1. Partial fragment molecules of a household library targeting to serine. […]
# Inhibition assay on hCES1A
# In this study, a known bioluminogenic probe substrate NLMe was used for human carboxylesterase 1 (hCES1A) inhibition assays. 2 In brief, the incubation mixture (0.1 mL) consisted of 0.1 M buffer PBS (PH 6.5), hCES1A (0.1 μg/mL, final concentration) and each test compound. […]
# After 20 min incubation, equal volume of LDR was added to stop reaction.
# Notum = molecular target: T2, Notum (Homo sapiens, UniProt Q6P988); test: Inhibition assay on Notum (substrate OPTS); type: biochemical; settings: 10 μM, selectivity screening
# T2 sequence (Q6P988 20-496): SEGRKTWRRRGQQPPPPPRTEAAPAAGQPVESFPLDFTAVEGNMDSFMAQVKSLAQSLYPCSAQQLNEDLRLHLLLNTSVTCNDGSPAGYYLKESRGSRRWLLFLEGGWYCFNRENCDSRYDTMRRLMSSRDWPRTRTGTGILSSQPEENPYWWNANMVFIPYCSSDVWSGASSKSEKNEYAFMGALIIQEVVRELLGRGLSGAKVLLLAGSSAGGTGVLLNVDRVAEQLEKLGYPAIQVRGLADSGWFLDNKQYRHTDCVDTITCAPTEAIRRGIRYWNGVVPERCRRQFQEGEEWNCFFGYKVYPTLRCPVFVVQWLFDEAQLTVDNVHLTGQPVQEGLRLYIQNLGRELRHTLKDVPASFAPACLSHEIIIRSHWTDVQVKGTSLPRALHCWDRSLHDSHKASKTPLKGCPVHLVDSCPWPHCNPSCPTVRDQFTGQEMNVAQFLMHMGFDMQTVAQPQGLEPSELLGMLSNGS
# Method: fluorogenic probe. 4 Briefly, the incubation mixtures (0.1 mL) contained Tris-HCl buffer, hPL solution (0.25 μg/mL, final concentration), porcine bile salt (0.1 mg/mL, final concentration) and each inhibitor (with different concentrations). After preincubated at 37 °C for 3 min, DDAO-ol (20 µM, final concentration) was added to initial reaction. The fluorescent signals of hydrolytic product were quantified by using the microplate reader (Spectra Max M4, Austria), with the wavelength of 600 nm and 660 nm for excitation and emission, respectively.
# Inhibition assay on Notum
# OPTS, a known fluorogenic probe, was used as the substrate to assess the residual activities of Notum in the presence of each tested compound. […] After preincubated at 37 °C for 1 min, OPTS was added to initiate the hydrolytic reaction and the multi-mode microplate reader (SpectraMax iD3, Molecular Devices, Austria) was used to analyze the florescence signals of the […]
# The F-3, F-4, F-10-bound peptides was analysed using the nanoLC-MS/MS system, respectively.6 The purified hCES1A (150 μg, final content) was co-incubated with the small molecule inhibitor F-3/ F-4/ F-10 (100 μM, final concentration) at 4 °C and 25 °C, respectively, for 4h. […]
SMILES,selective inhibitory activity on hCES1A (hCES1A),difference between IC50 values of hCES1A and hCES2A (hCES1A; hCES1A vs hCES2A),anti-hCES1A effect in screening of the covalent fragment library (hCES1A),response to Notum (Notum),"IC50 (hCES1A; 3 min incubation, read-out: hCES1A IC50 3 min) [nM]",time-dependent inhibition against hCES1A (hCES1A; 3 min vs 33 min incubation),"IC50 (hCES1A; 33 min incubation, read-out: hCES1A IC50 33 min)",hCES1A IC50 Fold Increase (hCES1A; ratio of IC50 at 3 min to IC50 at 33 min)
"O=S(=O)(F)c1ccc(Br)cc1 [D, 4-bromobenzenesulfonyl fluoride]",decent selective inhibitory activities,no statistically significant difference,potent anti-hCES1A effects; also recorded: strong and selective inhibition against hCES1A,no potent responses,–,–,–,–
"O=C(c1ccccc1)C(F)(F)F [F, 2,2,2-trifluoroacetophenone]",decent selective inhibitory activities,–,potent anti-hCES1A effects; also recorded: strong and selective inhibition against hCES1A,no potent responses,24.1 ± 1,weak time-dependent inhibition,11 nM and 11.1 nM,2 and 2.2
